Measured values taken from ChEMBL document CHEMBL4219169, “Sulfoximines as potent RORγ inverse agonists” (Bioorg Med Chem Lett, 2018).

Key:
[1] = Lipophilicity, log D of the compound at pH 6.5 by HPLC analysis; assay type: physicochemical; conditions: buffer
[2] = Fraction unbound in human plasma at 5 uM incubated for 4 hrs at 37 degC by LC-MS/MS method; assay type: ADME, cell-free
[3] = Intrinsic clearance in human hepatocytes assessed per million cells at 1 uM incubated for 5 to 90 mins by LC-MS/MS method; assay type: ADME, cell-based, Hepatocyte; conditions: read-out: CLH
[4] = Phototoxicity against human neonatal keratinocytes assessed as cell viability preincubated for 30 mins before 5 J/cm2 UV light irradiation for 15 mins followed by treatment medium replacement with fresh culture medium after 24 hrs by neutral red dye-based assay; conditions: 0.25 h
Salmonella typhimurium [5] = assay: Genotoxicity in Salmonella typhimurium TA98 in presence of aroclor-1254-induced rat S9 fraction by Ames test; assay type: toxicity, organism-based; conditions: salmonella enterica subsp. enterica serovar typhimurium
Salmonella typhimurium [6] = assay: Genotoxicity in Salmonella typhimurium TA98 in absence of aroclor-1254-induced rat S9 fraction by Ames test; assay type: toxicity, organism-based; conditions: salmonella enterica subsp. enterica serovar typhimurium
Salmonella typhimurium [7] = assay: Genotoxicity in Salmonella typhimurium TA100 in presence of aroclor-1254-induced rat S9 fraction by Ames test; assay type: toxicity, organism-based; conditions: salmonella enterica subsp. enterica serovar typhimurium
Salmonella typhimurium [8] = assay: Genotoxicity in Salmonella typhimurium TA100 in absence of aroclor-1254-induced rat S9 fraction by Ames test; assay type: toxicity, organism-based; conditions: salmonella enterica subsp. enterica serovar typhimurium
TK6 [9] = assay: Genotoxicity in human TK6 cells incubated for 27 hrs in absence of aroclor-1254-induced rat S9 fraction by Giemsa staining dependent optical microscopy based micronucleus test; assay type: toxicity, cell-based; conditions: tk6, 27 h
TK6 [10] = assay: Genotoxicity in human TK6 cells incubated for 3 hrs in presence of aroclor-1254-induced rat S9 fraction followed by 27 hrs recovery period by Giemsa staining dependent optical microscopy based micronucleus test; assay type: toxicity, cell-based; conditions: s9, 3 h
TK6 [11] = assay: Genotoxicity in human-derived p53-competent TK6 cells expressing GADD45a-dependent green fluorescent protein assessed as decrease in cell viability after 48 hrs in presence of Sprague-Dawley rat S9 fraction by FACS analysis; assay type: toxicity, cell-based; conditions: s9, 48 h
TK6 [12] = assay: Genotoxicity in human-derived p53-competent TK6 cells expressing GADD45a-dependent green fluorescent protein assessed as decrease in cell viability after 48 hrs in absence of Sprague-Dawley rat S9 fraction by FACS analysis; assay type: toxicity, cell-based; conditions: tk6, 48 h
[13] = target: T1, Nuclear receptor ROR-alpha (Homo sapiens, UniProt P35398); assay: Inverse agonist activity at RORalpha (unknown origin) expressed in human HeLa-derived HG5LN cells transfected with the GAL4 DNA-binding domain fused to the RORalpha ligand-binding domain assessed as inhibition of transcriptional activity after 18 hrs by luminescence-based luciferase reporter gene assay; assay type: cell-based
T1 sequence (P35398 whole entry): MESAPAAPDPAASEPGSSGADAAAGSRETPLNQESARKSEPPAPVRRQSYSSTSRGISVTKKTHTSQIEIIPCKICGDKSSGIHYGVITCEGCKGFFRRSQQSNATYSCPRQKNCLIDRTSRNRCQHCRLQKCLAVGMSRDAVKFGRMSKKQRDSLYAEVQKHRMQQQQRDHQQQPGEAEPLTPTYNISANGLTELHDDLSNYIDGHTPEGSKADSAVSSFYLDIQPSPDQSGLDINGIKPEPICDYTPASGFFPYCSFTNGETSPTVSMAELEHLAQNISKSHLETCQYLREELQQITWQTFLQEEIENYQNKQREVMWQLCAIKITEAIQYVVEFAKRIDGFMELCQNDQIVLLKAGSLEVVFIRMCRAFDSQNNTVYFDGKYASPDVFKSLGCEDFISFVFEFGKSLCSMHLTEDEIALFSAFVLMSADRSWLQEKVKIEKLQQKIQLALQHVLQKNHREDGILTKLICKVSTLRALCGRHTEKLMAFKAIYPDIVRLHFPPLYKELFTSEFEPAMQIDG

TK6 [14] = assay: Genotoxicity in human TK6 cells incubated for 3 hrs in absence of aroclor-1254-induced rat S9 fraction followed by 27 hrs recovery period by Giemsa staining dependent optical microscopy based micronucleus test; assay type: toxicity, cell-based; conditions: tk6, 3 h
Mus musculus = assay: In vivo inverse agonist activity at RORgamma in wild type BALB/c ByJ Rj mouse model of imiquimod-induced skin inflammation model assessed as attenuation of imiquimod-induced epidermal hyperplasia at 0.01% administered topically daily for 7 days dosed 2 hrs before imiquimod administration measured on day 8 by hematoxylin and eosin staining-based histological analysis; assay type: functional

CCc1ccc(N(CC(C)C)S(=O)(=O)c2ccc(CCN3CCOCC3)c(S(C)(=N)=O)c2)cc1 (stereo not drawn)
logD [1]: 4

CCc1ccc(N(CC(C)C)S(=O)(=O)c2ccc(NCC3(CC)CCOCC3)c(S(C)(=N)=O)c2)cc1 (stereo not drawn)
logD [1]: 6.1

CCc1ccc(N(CC(C)C)S(=O)(=O)c2ccc(OCC3CCOCC3)c([S+](C)[O-])c2)cc1 (stereo not drawn)
logD [1]: 5.4

CCc1ccc(N(CC(C)C)S(=O)(=O)c2ccc(OC3CCN(S(C)(=O)=O)CC3)c(S(C)(=N)=O)c2)cc1 (stereo not drawn)
logD [1]: 4.6

CCc1ccc(N(CC(C)C)S(=O)(=O)c2ccc(OCC3CCOCC3)c(CC(=O)O)c2)cc1
logD [1]: 3.1

CCc1ccc(N(CC(C)C)S(=O)(=O)c2ccc(OCC3CCOCC3)c(S(=N)(=O)CC)c2)cc1 (stereo not drawn)
logD [1]: 5

CCc1ccc(N(CC(C)C)S(=O)(=O)c2ccc(OCC3CCOCC3)c(S(C)(=N)=O)c2)cc1 (stereo not drawn)
logD [1]: 4.6

CCc1ccc(N(CC(C)C)S(=O)(=O)c2ccc(OCC3CCOCC3)c([S@](C)(=N)=O)c2)cc1
fraction unbound at 4 h, 5 µM [2]: 0.049 | hepatocyte CLint at 1 µM [3]: 160 µL/min/1e6 cells | Activity [4]: Non-Toxic | Activity (Salmonella typhimurium [5]): Non-Toxic | Activity (Salmonella typhimurium [6]): Non-Toxic | Activity (Salmonella typhimurium [7]): Non-Toxic | Activity (Salmonella typhimurium [8]): Non-Toxic | Activity (TK6 [9]): Non-Toxic | Activity (TK6 [10]): Non-Toxic | Activity (TK6 [11]): Non-Toxic | Activity (TK6 [12]): Non-Toxic | IC50 [13]: > 10 µM | Activity (TK6 [14]): Non-Toxic

CCc1ccc(N(CC(C)C)S(=O)(=O)c2ccc(N3CCN(C(C)=O)CC3)c(S(C)(=N)=O)c2)cc1 (stereo not drawn)
logD [1]: 3.8

CCc1ccc(N(CC(C)C)S(=O)(=O)c2ccc(N[C@@H](C)C3CCOCC3)c(S(C)(=N)=O)c2)cc1 (stereo partly drawn)
logD [1]: 5.6

CCc1ccc(N(CC(C)C)S(=O)(=O)c2ccc(N[C@H](C)C3CCOCC3)c(S(C)(=N)=O)c2)cc1 (stereo partly drawn)
logD [1]: 5.6

CCc1ccc(N(CC(C)C)S(=O)(=O)c2ccc(OC3CCN(C(C)=O)CC3)c(S(C)(=N)=O)c2)cc1 (stereo not drawn)
logD [1]: 3.8

CCc1ccc(N(CC(C)C)S(=O)(=O)c2ccc(OCC3CCOCC3)c(S(C)(=O)=O)c2)cc1
logD [1]: 5.8

CCc1ccc(N(CC(C)C)S(=O)(=O)c2ccc(NCC3CCOCC3)c(S(C)(=N)=O)c2)cc1 (stereo not drawn)
logD [1]: 5.3

CCc1ccc(N(CC(C)C)S(=O)(=O)c2ccc(OCC3CCOCC3)c(CC#N)c2)cc1
logD [1]: 6.5

CCc1ccc(N(CC(C)C)S(=O)(=O)c2ccc(NCC3(O)CCOCC3)c(S(C)(=N)=O)c2)cc1 (stereo not drawn)
logD [1]: 4.1

CCc1ccc(N(CC(C)C)S(=O)(=O)c2ccc(OCC3CCOCC3)cc2)cc1
logD [1]: 7.2

CCCCC(=O)O[C@]1(C(=O)CO)[C@@H](C)C[C@H]2[C@@H]3CCC4=CC(=O)C=C[C@]4(C)[C@@]3(F)[C@@H](O)C[C@@]21C [BETAMETHASONE VALERATE]
Activity (Mus musculus): 72%

CCc1ccc(N(CC(C)C)S(=O)(=O)c2ccc(OCC3CCOCC3)c(CO)c2)cc1 [GSK2981278]
logD [1]: 5.9

CCc1ccc(N(CC(C)C)S(=O)(=O)c2ccc(OCC3CCOCC3)c(S(C)(=O)=NC)c2)cc1 (stereo not drawn)
logD [1]: 5.2

CCc1ccc(N(CC(C)C)S(=O)(=O)c2ccc(OCC3CCOCC3)c(S(N)(=O)=O)c2)cc1
logD [1]: 5.3

CCc1ccc(N(CC(C)C)S(=O)(=O)c2ccc(N(C)CC3CCOCC3)c(S(C)(=N)=O)c2)cc1 (stereo not drawn)
logD [1]: 5.2

CCc1ccc(N(CC(C)C)S(=O)(=O)c2ccc(NCC3(C)CCOCC3)c(S(C)(=N)=O)c2)cc1 (stereo not drawn)
logD [1]: 5.7

CCc1ccc(N(CC(C)C)S(=O)(=O)c2ccc(NCC3(F)CCOCC3)c(S(C)(=N)=O)c2)cc1 (stereo not drawn)
logD [1]: 5.2

CCc1ccc(N(CC(C)C)S(=O)(=O)c2ccc(OCC3CCOCC3)c(CC(N)=O)c2)cc1
logD [1]: 4.8

CCc1ccc(N(CC(C)C)S(=O)(=O)c2ccc(OC3CCOCC3)c(S(C)(=N)=O)c2)cc1 (stereo not drawn)
logD [1]: 4.4
